Data on twelve compounds can be found in US11440923B2, “Substituted macrocyclic indole derivatives” (Bayer Aktiengesellschaft, priority 2017, dated 2022).

Assay [1] has as its target MCL1 protein / biotinylated BIM BH3 peptide in RKO cells (Homo sapiens (Human), UniProt Q07820). Description: PIxEL: protein-protein interaction in permeabilized cells by ELISA (Assay 5). It is filed as cell-based. The note with it: PIxEL IC50 (median). How it is done:
PIxEL: Protein-Protein Interaction in Permeabilized Cells by ELISA
Most MCL1 protein molecules are localized at the mitochondria outer membrane and sequester pro-apoptotic proteins through binding of their BCL2 homology domain 3 (BH3 domain). MEB buffer (150 mM mannitol, 10 mM HEPES pH 7.5, 50 mM KCl, 20 μM EDTA, 20 μM EGTA, 5 mM potassium succinate, 0.1% protease-free BSA (SIGMA) with low dose digitonin (0.002%) permeabilizes plasma membrane while leaves live mitochondria, where MCL1 maintains its native localization and conformation. Unlike biophysical assays (e.g. TR-FRET) that use truncated recombinant MCL1 protein, this assay uses full length endogenous MCL1 protein at mitochondria outer membrane. It measures the interaction between MCL1 protein and biotinylated BIM BH3 peptide. Compounds can compete with BIM BH3 peptide to bind to MCL1 protein.
On day 1, RKO colon cancer cell line cells were plated at 0.8 million cells/ml, 100 μl/well in 96-well flat bottom TC plates (Corning). MCL1 antibody (Santa Cruz sc-12756) were diluted at 200 fold (final concentration 1 μg/ml) in carbonate buffer (Thermo Fisher Scientific, pH 9.6), and 50 μl of diluted antibody was added to each well of high bind ELISA plates ([…]). Each plate was tapped to make sure liquid covering entire bottom of wells and incubate at 37° C. overnight.
On the second day, MCL1 antibody was washed from ELISA plate. 250 μl Odyssey® Blocking Buffer (PBS) (Li-Cor) was added to each well, incubated at room temperature for at least 1 hour, then washed once with 250 μl 1×PBST. Plates with RKO cells were gently washed once with 100 μl/well PBS, once with 100 μl/well MEB buffer without digitonin, then 100 μl of MEB buffer with 0.002% digitonin was gently added to each well. Compounds were added with HP Tecan compound dispenser in 3-fold dilution series, highest dose 30 μM, 10-dose per compound in quadruplicates. Biotin-BIM peptide (synthesized by 21st Century) was added with HP Tecan compound dispenser at 0.2 μM immediately after the addition of compounds. Plates were rocked for 1 hour at room temperature. Then MEB buffer was aspirated and 50 μl of CHAPS buffer (50 mM Tris-Cl, pH 7.4, 150 mM NaCl, 1% CHAPS, 1 mM EDTA, 1 mM EGTA, cOmplete protease inhibitors (Roche), PhosSTOP (Roche)) was added to each well. Plates were rocked for 1 hour at 4° C., then 45 μl cell lysate from each well were transferred to ELISA plates coated with MCL1 antibody. Plates were incubated overnight in the cold room with rocking.
On the third day, ELISA plates were washed once with 250 μl 1×PBST. Streptavidin-poly-HRP (Thermo Fisher Scientific) was diluted to 20 ng/ml in Odyssey blocking buffer plus 0.05% Triton-100, and 100 μl was added to each well of the ELISA plate. Plates were incubated at room temperature for 1 hour with rocking, then washed with 100 μl 1×PBST for 3 times. Each SuperSignal ELISA Femto Maximum Sensitivity substrate was added to a 50-ml tube and mixed, then 100 μl of mixed substrate was added to each well. Plates were shaken for 1 minute then luminescence was measured by Envision plate reader […]. Signal of each well were normalized by no-compound control and no-cell control. IC50 was calculated using Graphic Pad PRISM software.

Another assay addresses MCL-1 (Homo sapiens (Human), UniProt Q07820, K194A/K197A/R201A). Description: Protein-compound interaction assay (SPR assay, Assay 9). The format is binding. From the text: Assay 9 Protein-Compound Interaction Assay (SPR Assay)
The ability of the compounds described in this invention to bind to MCL-1 may be determined using surface plasmon resonance (SPR). This allows for the quantification of binding in terms of the equilibrium dissociation constant (KD [M]), as well as association and dissociation rate constants (kon [1/Ms] and koff [1/s], respectively). The measurements may be performed using Biacore® T200 or Biacore® S200 instruments (GE Healthcare).
Briefly, carboxymethylated dextran biosensor chips (Series S Sensor Chip CMS, GE Healthcare) were activated with 1-ethyl-3-(3-dimethylaminopropyl)-carbodiimide hydrochloride (EDC) and N-hydroxysuccinimide (NHS) according to the supplier's instructions. MBP-MCL-1 was diluted in 1×PBS-P+ (GE Healthcare) and injected on the activated chip surface. Subsequently, a solution of 1 M ethanolamine-HCl (GE Healthcare) was injected to block unreacted groups, resulting in approximately 400-2500 response units (RU) of immobilized protein. A reference surface was generated by treatment with NHS-EDC and ethanolamine-HCl. […] Compounds were injected for 60 s followed by a dissociation time of up to 1000 s.
The double-referenced sensorgrams were fit to a simple reversible Langmuir 1:1 reaction mechanism as implemented in the Biacore® T200 and S200 evaluation software (T200 evaluation software version 2.0 and S200 evaluation software version 1.0, GE Healthcare).
On the technique in general: SPR reads the build-up and loss of mass on a sensor chip optically.

Counter-ions that a name gives are not always drawn.

MCL1 protein / biotinylated BIM BH3 peptide in RKO cells, sequence (Q07820 whole entry): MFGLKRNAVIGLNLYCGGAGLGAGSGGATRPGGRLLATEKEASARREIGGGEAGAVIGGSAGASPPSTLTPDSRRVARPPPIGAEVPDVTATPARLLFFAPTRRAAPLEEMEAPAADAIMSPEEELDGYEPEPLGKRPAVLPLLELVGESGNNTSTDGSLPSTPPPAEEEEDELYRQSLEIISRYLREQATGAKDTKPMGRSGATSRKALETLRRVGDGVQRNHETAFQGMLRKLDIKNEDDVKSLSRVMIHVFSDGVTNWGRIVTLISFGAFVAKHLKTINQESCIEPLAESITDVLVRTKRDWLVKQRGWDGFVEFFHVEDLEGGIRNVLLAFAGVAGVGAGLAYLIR
MCL-1, sequence (Q07820 whole entry K194A/K197A/R201A, looked up): as the sequence (Q07820 whole entry) above, with K194A, K197A, R201A counted along it

One may read the IC50 as the midpoint of a concentration-inhibition curve. Low readings indicate inhibition by little substance, high ones a need for much substance. Compound `Cc1c2c(nn1C)C(CCO)OCCCCn1c(C(=O)O)c(CCCOc3cccc4ccccc34)c3ccc(Cl)c-2c31` (racemic) [Example 26, (rac)-4-chloro-15-(2-hydroxyethyl)-2,3-dimethyl-7-{3-[(naphthalen-1-yl)oxy]propyl}-2,10,11,12,13,15-hexahydropyrazolo[4′,3′:9,10][1,6]oxazacycloundecino[8,7,6-hi]indole-8-carboxylic Acid] came in with an IC50 in assay [1] of 1250 nM.
For `CCc1c2c(nn1C)C(C(F)(F)F)OCCCCn1c(C(=O)O)c(CCCOc3cccc4ccccc34)c3ccc(Cl)c-2c31` (racemic) [Example 27, (rac)-4-Chloro-3-ethyl-2-methyl-7-{3-[(naphthalen-1-yl)oxy]propyl}-15-(trifluoromethyl)-2,10,11,12,13,15-hexahydropyrazolo[4′,3′:9,10][1,6]oxazacycloundecino[8,7,6-hi]indole-8-carboxylic Acid], it took 1960 nM to reach half-maximal inhibition in assay [1] (IC50).
Still for that read-out and setting: the result for `Cc1c2c(nn1C)C(C1CC1)OCCCCn1c(C(=O)O)c(CCCOc3cccc4ccccc34)c3ccc(Cl)c-2c31` (racemic) [Example 28, (rac)-4-Chloro-15-cyclopropyl-2,3-dimethyl-7-{3-[(naphthalen-1-yl)oxy]propyl}-2,10,11,12,13,15-hexahydropyrazolo[4′,3′:9,10][1,6]oxazacycloundecino[8,7,6-hi]indole-8-carboxylic Acid] reads 2330 nM; that for `CCc1c2c(nn1C)C(c1ccccc1)OCCCCn1c(C(=O)O)c(CCCOc3cccc4cc(F)ccc34)c3ccc(Cl)c-2c31` (racemic) [Example 59, (rac)-4-chloro-3-ethyl-7-{3-[(6-fluoronaphthalen-1-yl)oxy]propyl}-2-methyl-(15-rac)-phenyl-2,10,11,12,13,15-hexahydropyrazolo[4′,3′:9,10][1,6]oxazacycloundecino[8,7,6-hi]indole-8-carboxylic Acid], 190 nM; that for `CCc1c2c(nn1C)C1CCCCN1CCCCn1c(C(=O)O)c(CCCOc3cccc4ccccc34)c3ccc(Cl)c-2c31` (racemic) [Example 102, (rac)-18-chloro-1-ethyl-2-methyl-15-[3-(1-naphthyloxy)propyl]-2,3b,4,5,6,7,9,10,11,12-decahydropyrazolo[3′,4′:8,9]pyrido[1′,2′:6,7][1,6]diazacycloundecino[10,11,1-hi]indole-14-carboxylic Acid], 59.9 nM.
Still for that read-out and setting: the result for `CCc1c2c(nn1C)C1CCCN1CCCCn1c(C(=O)O)c(CCCOc3cccc4cc(F)ccc34)c3ccc(Cl)c-2c31` (single isomer, unassigned; (+)) [Example 105, (+)-17-chloro-1-ethyl-14-{3-[(6-fluoronaphthalen-1-yl)oxy]propyl}-2-methyl-3b,4,5,6,8,9,10,11-octahydro-2H-pyrazolo[3′,4′:8,9]pyrrolo[1′,2′:6,7][1,6]diazacycloundecino[10,11,1-hi]indole-13-carboxylic Acid] reads 63 nM; that for `CCc1c2c(nn1C)C(C(F)(F)F)OCCCCn1c(C(=O)O)c(CCCOc3cccc4ccccc34)c3ccc(Cl)c-2c31` (single isomer, unassigned; enantiomer 1) [Example 33, (+)-4-chloro-3-ethyl-2-methyl-7-{3-[(naphthalen-1-yl)oxy]propyl}-15-(trifluoromethyl)-2,10,11,12,13,15-hexahydropyrazolo[4′,3′:9,10][1,6]oxazacycloundecino[8,7,6-hi]indole-8-carboxylic Acid—N-ethylethanamine Salt (Enantiomer 1)], 1510 nM; that for `Cc1c2c(nn1C)C(C1CC1)OCCCCn1c(C(=O)O)c(CCCOc3cccc4ccccc34)c3ccc(Cl)c-2c31` (single isomer, unassigned; enantiomer 1) [Example 35, (+)-4-chloro-15-cyclopropyl-2,3-dimethyl-7-{3-[(naphthalen-1-yl)oxy]propyl}-2,10,11,12,13,15-hexahydropyrazolo[4′,3′:9,10][1,6]oxazacycloundecino[8,7,6-hi]indole-8-carboxylic Acid N-ethylethanamine Salt (Enantiomer 1)], 1640 nM.
Same read-out and setting: the result for `CCc1c2c(nn1C)C(C1CC1)OCCCCn1c(C(=O)O)c(CCCOc3cccc4cc(F)ccc34)c3ccc(Cl)c-2c31` (single isomer, unassigned; enantiomer 1) [Example 39, (+)-4-chloro-15-cyclopropyl-3-ethyl-7-{3-[(6-fluoronaphthalen-1-yl)oxy]propyl}-2-methyl-2,10,11,12,13,15-hexahydropyrazolo[4′,3′:9,10][1,6]oxazacycloundecino[8,7,6-hi]indole-8-carboxylic Acid—N-ethylethanamine Salt (Enantiomer 1)] reads 317 nM; that for `CCc1c2c(nn1C)C(CC(C)(C)O)OCCCCn1c(C(=O)O)c(CCCOc3cccc4cc(F)ccc34)c3ccc(Cl)c-2c31` (single isomer, unassigned; enantiomer 1) [Example 53, (+)-4-chloro-3-ethyl-7-{3-[(6-fluoronaphthalen-1-yl)oxy]propyl}-15-(2-hydroxy-2-methylpropyl)-2-methyl-2,10,11,12,13,15-hexahydropyrazolo[4′,3′:9,10][1,6]oxazacycloundecino[8,7,6-hi]indole-8-carboxylic Acid—N-ethylethanamine Salt (Enantiomer 1)], 135 nM.
Broadly, the Kd is the concentration at which binding is half-saturated. Higher therefore signals weaker binding. For orientation: koff means the rate constant with which the complex falls apart. What is called kon is the second-order rate constant of association. On MCL-1 (KD (geometric mean), SPR, 25° C.), `CCc1c2c(nn1C)C(CCC1CCOCC1)OCCCCn1c(C(=O)O)c(CCCOc3cccc4cc(F)ccc34)c3ccc(Cl)c-2c31` (single isomer, unassigned; enantiomer 1) [Example 61, 4-chloro-3-ethyl-7-{3-[(6-fluoronaphthalen-1-yl)oxy]propyl}-2-methyl-15-[2-(oxan-4-yl)ethyl]-2,10,11,12,13,15-hexahydropyrazolo[4′,3′:9,10][1,6]oxazacycloundecino[8,7,6-hi]indole-8-carboxylic Acid (Enantiomer 1)] registered a Kd of 1.3 nM. In addition, the koff at MCL-1 (read-out: koff (geometric mean), SPR, 25° C.) is 0.0021 s⁻¹. Besides, the on-rate (kon) on MCL-1 (read-out: kon (geometric mean), SPR, 25° C.) was determined as 1.6e+06 M⁻¹ s⁻¹.
With `Cc1c2c(nn1C)C(CCN1CCOCC1)OCCCCn1c(C(=O)O)c(CCCOc3cccc4cc(F)ccc34)c3ccc(Cl)c-2c31` (single isomer, unassigned; enantiomer 2) [Example 18, 4-chloro-7-{3-[(6-fluoronaphthalen-1-yl)oxy]propyl}-2,3-dimethyl-15-[2-(morpholin-4-yl)ethyl]-2,10,11,12,13,15-hexahydropyrazolo[4′,3′:9,10][1,6]oxazacycloundecino[8,7,6-hi]indole-8-carboxylic Acid (Enantiomer 2)], the IC50 in assay [1] came out at 2430 nM.
